US4496591A, “Insecticidal bis-carbamate sulfides” (priority 1981, dated 1985)

Legend:
Assay type in all cases: in vivo
Marigold = assay: Phytotoxicity, marigold; design: key: 0: the compounds had no visible effects on that plant species; settings: scale 0 to 10, eight pounds per acre, approximately two weeks
Method: (§1) Several species of the novel compounds were tested for their phytotoxic effects. Two flats of each species of plants to be tested were planted 8-14 days before testing and grown at greenhouse conditions. One flat was sprayed with the chemical to be tested at the rate of eight pounds per acre while the other control flat was sprayed with solvent only. The results of such testing were recorded approximately two weeks after treatment and are reproduced in Table III below.
(§2) Numerical ratings from "0" to "10" are used to designate the degree of activity.

flax = assay: Phytotoxicity, flax; design: key: 0: the compounds had no visible effects on that plant species; settings: scale 0 to 10, eight pounds per acre, approximately two weeks
Method: as §1, §2

Sorghum = assay: Phytotoxicity, sorghum; design: key: 0: the compounds had no visible effects on that plant species; settings: scale 0 to 10, eight pounds per acre, approximately two weeks
Method: as §1, §2

Cucumber = assay: Phytotoxicity, cucumber; design: key: 0: the compounds had no visible effects on that plant species; settings: scale 0 to 10, eight pounds per acre, approximately two weeks
Method: as §1, §2

Snapbean = assay: Phytotoxicity, snapbean; design: key: 0: the compounds had no visible effects on that plant species; settings: scale 0 to 10, eight pounds per acre, approximately two weeks
Method: as §1, §2

[1] = tested on: bean aphid (Aphis fabae Scop.); assay: Bean aphid foliage spray test; design: key: A: excellent control; B: partial control; C: no control at 500 ppm; settings: 500 parts per million, 24 hour
Method: (§3) Suspensions of the test compounds were prepared by dissolving one gram of compound in 50 milliliters of acetone in which had been dissolved 0.1 gram (10 percent of the weight of compound) of an alkylphenoxy polyethoxyethanol surfactant, as an emulsifying or dispersing agent. The resulting solution was mixed into 150 milliliters of water to give roughly 200 milliliters of a suspension containing the compound in finely divided form. The thus-prepared stock suspension contained 0.5 percent by weight of compound. The concentrations in parts per million by weight employed in the tests described hereinbelow were obtained by appropriate dilutions of the stock suspension with water. The test procedures were as follows:
Adults and nymphal stages of the bean aphid (Aphis fabae Scop.) reared on potted dwarf nasturtium plants at 68°-70° F. and 50±5 percent relative humidity, constituted the test insects. For testing purposes, the number of aphids per pot were standardized to 100-150 by trimming plants containing excess aphids.
The test compounds were formulated by diluting the stock suspension with water to give a suspension containing 500 parts of test compound per million parts of final formulation.
The potted plants (one pot per compound tested) infested with 100-150 aphids, were placed on a revolving turntable and sprayed with 100-110 milliliters of test compound formulation by use of a DeVilbiss spray gun set at 40 psig. air pressure. This application, which lasted 25 seconds, was sufficient to wet the plants to run-off. As a control, 100-110 milliliters of a water-acetone-emulsifier solution containing no test compound was also sprayed on infested plants. After spraying, the pots were placed on their sides on a sheet of white standard mimeograph paper which had been previously ruled to facilitate counting. Temperature and humidity in the test room during the 24 hour holding period were 68°-70° F. and 50±5 percent, respectively. Aphids which fell onto the paper and were unable to remain standing after being uprighted were considered dead. Aphids remaining on the plants were observed closely for movement and those which were unable to move the length of the body upon stimulation by prodding were considered dead.
(§4) In these tests the pesticidal activity of the compounds at the indicated dosage rate against aphid, Southern Armyworm, Bean Beetle and housefly was rated as follows: […]

[2] = tested on: root-knot nematode, Meloidogyne incognita var. acrita; assay: Nematocide test; design: key: 1: severe galling, equal to untreated plants; 2: moderate galling; 3: light galling; 4: very light galling; 5: no galling, perfect control; settings: 3.33 m.g. per jar, cucumber, approximately 3 weeks
Method: The test organism used was the infective migratory larvae of the root-knot nematode, Meloidogyne incognita var. acrita, reared in the greenhouse on roots of cucumber plants. Infected plants were removed from the culture, and the roots were chopped very finely. A small amount of this inoculum was added to a pint jar containing approximately 180 cc. of soil. The jars were capped and incubated for one week at room temperature. During this period eggs of the nematode were hatched, and the larval forms migrated into the soil.
Ten ml. of the test formulation were added to each of the two jars for each dosage tested. Following the addition of chemical, the jars were capped, and the contents thoroughly mixed on a ball mill for […].
The test compounds were formulated by a standard procedure of solution in acetone addition of an emulsifier, and dilution with water. Primary screening tests were conducted at 3.33 m.g. of the test compound per jar.
The jars were left capped at room temperature for a period of 48 hours, and the contents then transferred to 3 inch pots. Subsequently, the pots were seeded to cucumber as an indicator crop and placed in the greenhouse where they were cared for in the normal fashion for approximately 3 weeks.
The cucumber plants were then taken from the pots, the soil removed from the roots, and the amount of galling visually rated.
In the test for activity against nematodes activity was rated as follows: […]

[3] = tested on: egg of the Southern armyworm (Spodoptera eridania (Cram.)); assay: Southern armyworm ovicide test; design: key: A: excellent control; B: partial control; C: no control at 500 ppm; settings: 500 parts per million, egg dip, four days
Method: as §3
The test organism was the egg of the Southern armyworm (Spodoptera eridania (Cram.)) as obtained from adults reared on Tendergreen bean plants at a temperature of 80±5° F. and a relative humidity of 50±5 percent. The eggs were laid on freezer paper (Marlon 717, Copco paper) and then cut into small sections containing one or two egg masses.
The test compounds were formulated by diluting the stock suspension with water to give a suspension containing 500 parts of test compound per million parts of final formulation. The egg masses were then dipped until they were thoroughly wet (5-10 seconds). They were then placed on a paper towel face up and were allowed to dry for 15-30 minutes. The dry eggs were placed in a 15×60 mm petri dish containing a cotton dental wick saturated with a 5 percent sodium chloride solution to maintain a high level of humidity. The closed dishes were labeled and held at a temperature of 80±5° F. for four days. Larvae that emerged from the egg, even if dead at the time of observation, were recorded as hatched.
as §4

[4] = tested on: Mexican bean beetle (Epilachna varivestis, Muls.) larvae; assay: Mexican bean beetle leaf spray test; design: key: A: excellent control; B: partial control; C: no control at 500 ppm; settings: 500 parts per million, fourth instar larvae, three days
Method: as §3
Fourth instar larvae of the Mexican bean beetle (Epilachna varivestis, Muls.), reared on Tendergreen bean plants at a temperature of 80±5° F. and 50±5° F. percent relative humdity, were the test insects.
The test compounds were formulated by diluting the stock suspension with water to give a suspension containing 500 parts of test compound per million parts of final formulation. Tendergreen bean plants of standard height and age were placed on a revolving turntable and sprayed with 100-110 milliliters of test compound formulation by use of a DeVilbiss spray gun set at 40 psig air pressure. This application, which lasted 25 seconds, was sufficient to wet the plants to run-off. As a control, 100-110 milliliters of a water-acetone-emulsifier solution containing no test compound was also sprayed on infested plants. When dry, the paired leaves were separated and each was placed in a 9 centimeter Petri dish lined with moistened filter paper. Five randomly selected larvae were introduced into each dish, and the dishes were closed. The closed dishes were labeled and held at a temperature of 80±5° F., for three days. Although the larvae could easily consume the leaf within 24 to 48 hours, no more food was added. Larvae which were unable to move the length of the body, even upon stimulation, were considered dead.
as §4

[5] = tested on: southern armyworm (Spodoptera eridania, (Cram.)) larvae; assay: Southern armyworm leaf spray bait test; design: key: A: excellent control; B: partial control; C: no control at 500 ppm; settings: 500 parts per million, three days
Method: as §3
Larvae of the southern armyworm (Spodoptera eridania, (Cram.)), reared on Tendergreen bean plants at a temperature of 80±5° F. and a reative humidity of 50±5 percent, constituted the test insects.
The test compounds were formulated by diluting the stock suspension with water to give a suspension containing 500 parts of test compound per million parts of final formulation. Potted Tendergreen bean plants of standard height and age were placed on a revolving turntable and sprayed with 100-110 milliliters of test compound formulation by use of a DeVilbiss spray gun set at 40 psig air pressure. This application, which lasted 25 seconds, was sufficient to wet the plants to run-off. As a control, 100-110 milliliters of a water-acetone-emulsifier solution containing no test compound were also sprayed on infested plants. When dry, the paired leaves were separated and each one was placed in a 9 centimeter Petri dish lines with moistened filter paper. Five randomly selected larvae were introduced into each dish and the dishes were closed. The closed dishes were labeled and held at 80°-85° F. for three days. Although the larvae could easily consume the whole leaf within twenty-four hours, no more food was added. Larvae which were unable to move the length of the body, even upon stimulation by prodding, were considered dead.
as §4

[6] = tested on: house flies (Musca domestica, L.); assay: Fly bait test; design: key: A: excellent control; B: partial control; C: no control at 500 ppm; settings: 500 parts per million, sugar bait, twenty-four hours
Method: as §3
Four to six day old adult house flies (Musca domestica, L.), reared according to the specifications of the Chemical Specialties Manufacturing Association (Blue Book, McNair-Dorland Co., N.Y. 1954; pages 243-244, 261) under controlled conditions of 80±5° F. and 50±5 percent relative humidity, were the test insects. The flies were immobilized by anesthetizing them with carbon dioxide. Twenty-five immobilized individuals, males and females, were transferred to a cage consisting of a standard food strainer about five inches in diameter which was inverted over a wrapping-paper-covered surface. The test compounds were formulated by diluting the stock suspension with a 10 percent (by weight) sugar solution to give a suspension containing 500 parts of test compound per million parts of final formulation, by weight. Ten milliliters of the test formulation were added to a souffle cup containing a one-inch square of an absorbent cotton pad. This bait cup was introduced and centered on the blotting paper under the food strainer prior to admitting the anesthetized flies. The caged flies were allowed to feed on the bait for twenty-four hours, at a temperature of 80±5° F. and at a relative humidity of 50±5 percent.
as §4

SMILES	Phytotoxicity rating, Marigold (Marigold)	Phytotoxicity rating, flax (flax)	Phytotoxicity rating, Sorghum (Sorghum)	Phytotoxicity rating, Cucumber (Cucumber)	Phytotoxicity rating, Snapbean (Snapbean)	Aphids, pesticidal activity rating [1]	Root-Knot Nematode, galling rating [2]	Southern Armyworm (egg), pesticidal activity rating [3]	Mexican Bean Beetle, pesticidal activity rating [4]	Southern Armyworm, pesticidal activity rating [5]	Housefly, pesticidal activity rating [6]
CSC(C)=NOC(=O)N(C)SN(C)C(=O)Oc1ccccc1C(C)=O	0	0	0	0	0	–	–	–	–	–	–
CSC(C)=NOC(=O)N(C)SN(C)C(=O)Oc1ccc(C(C)=O)c(C)c1 [Compound 7]	–	–	–	–	–	A	5	A	A	A	A
COc1cc(C=O)ccc1OC(=O)N(C)SN(C)C(=O)ON=C(C)SC [Compound 5]	–	–	–	–	–	A	2	B	A	A	A
COc1ccc(C(=O)c2ccccc2)c(OC(=O)N(C)SN(C)C(=O)ON=C(C)SC)c1 [Compound 10]	–	–	–	–	–	A	5	A	A	A	A
CSC(C)=NOC(=O)N(C)SN(C)C(=O)Oc1cccc(C(C)=O)c1 [Compound 1, S-Methyl-N-[[[N'-[[N"-[(3-acetylphenoxy)carbonyl]-N"-methylaminosulfenyl]]-N'-methylcarbamoyloxy]]]thioacetimidate]	–	–	–	–	–	A	5	A	A	A	A
CSC(C)=NOC(=O)N(C)SN(C)C(=O)Oc1cccc(C(C)=O)c1 [drawing 26]	0	0	0	0	0	–	–	–	–	–	–
CSC(C)=NOC(=O)N(C)SN(C)C(=O)Oc1ccccc1C=O [drawing 25]	0	0	0	0	0	–	–	–	–	–	–
